From patent publication US20060014644A1, “Phenylsulfonyl ureas, process for their preparation and their use as herbicides and plant growth regulators” (Hoechst Schering AgrEvo GmbH, priority 1999, published 2006)

Tests used:
[1] = test system: harmful plants such as Sinapis alba, Echinochloa crus-galli, Lolium multiflorum, Chrysanthemum segetum, Setaria spp., Abutilon theophrasti, Amaranthus …; test: Post-emergence effect on weeds (greenhouse pot test, visual scoring); assay type: in vivo, monocotyledonous and dicotyledonous weeds; details: three-leaf stage, application rate of 0.3 kg and less of active substance per hectare, scored visually after about 3 to 4 weeks by comparison with untreated controls
Procedure: 2. Post-Emergence Effect on Weeds
Seeds or rhizome pieces of monocotyledonous and dicotyledonous weeds were placed in sandy loam soil in plastic pots, covered with soil and grown in a greenhouse under good growth conditions. Three weeks after sowing, the test plants were treated at the three-leaf stage. The compounds according to the invention which were formulated as wettable powders or emulsion concentrates were sprayed, at various dosages, onto the green parts of the plants at an application rate of 600 to 800 l of water/ha (converted). After the test plants had remained in the greenhouse for about 3 to 4 weeks under ideal growth conditions, the effect of the preparations was scored visually by comparison with untreated controls. The agents according to the invention also have good herbicidal activity post-emergence against a broad spectrum of economically important Weed grasses and broad-loafed weeds.

[2] = test system: harmful plants such as Sinapis alba, Chrysanthemum segetum, Avena sativa, Stellaria media, Echinochloa crus-galli, Lolium multiflorum, Setaria spp., Abutilon …; test: Pre-emergence effect on weeds (greenhouse pot test, visual scoring); assay type: in vivo, monocotyledonous and dicotyledonous weed plants; details: application rate of 0.3 kg and less of active substance per hectar, scored visually after 3 to 4 weeks by comparison with untreated controls
Source text: 1. Pre-Emergence Effect on Weeds
Seeds or rhizome pieces of monocotyledonous and dicotyledonous weed plants were placed in sandy loam soil in cardboard pots and covered with soil. The compounds according to the invention which were formulated in the form of wettable powders or emulsion concentrates were then applied to the surface of the soil cover in the form of aqueous suspensions or emulsions at an application rate of 600 to 800 l of water/ha (converted), in various dosages.
After the treatment, the pots were placed in a greenhouse and kept under good growth conditions for the weeds. After the test plants had emerged, the damage to the plants or the negative effect on the emergence was scored visually after a test period of 3 to 4 weeks by comparison with untreated controls. As shown by the test results, compounds according to the invention have good herbicidal pre-emergence activity against a broad spectrum of weed grasses and broad-leafed weeds.

Row | SMILES | herbicidal activity against harmful plants, post-emergence [1] | herbicidal activity against harmful plants, pre-emergence [2]
1 | COC(=O)c1c(N(C)C)cccc1S(=O)(=O)NC(=O)Nc1nc(OC)cc(OC)n1 [Example 1-401] | very good herbicidal activity | very good herbicidal activity
2 | CCN(CC)c1cccc(S(=O)(=O)NC(=O)Nc2nc(OC)cc(OC)n2)c1C(=O)OC [Example 1-417] | very good herbicidal activity | very good herbicidal activity
3 | COC(=O)c1c(N(CC(C)C)CC(C)C)cccc1S(=O)(=O)NC(=O)Nc1nc(OC)cc(OC)n1 [Example 1-425] | very good herbicidal activity | very good herbicidal activity
4 | COC(=O)c1c(N(CC(C)C)CC(C)C)cccc1S(=O)(=O)[N-]C(=O)Nc1nc(OC)cc(OC)n1.[Na+] [Example 1-426] | very good herbicidal activity | very good herbicidal activity
